Usually IC50 stands for the concentration that inhibits the measured activity by half.

In patent publication US20240425479A1, “HALO-SUBSTITUTED AMINO AZA-HETEROARYL COMPOUNDS AS INHIBITORS OF THE HAEMATOPOIETIC PROGENITOR KINASE 1 (HPK1)” (priority 2021, published 2024) one finds IC50 data, which are given here for 22 molecules.

This assay deals with T1, Recombinant (1-346) HPK1 (h) (Homo sapiens, UniProt Q92918).
T1 construct: Recombinant (1-346) HPK1 (h) is incubated with 8 mM MOPS pH 7.0
T1 sequence (Q92918 1-346): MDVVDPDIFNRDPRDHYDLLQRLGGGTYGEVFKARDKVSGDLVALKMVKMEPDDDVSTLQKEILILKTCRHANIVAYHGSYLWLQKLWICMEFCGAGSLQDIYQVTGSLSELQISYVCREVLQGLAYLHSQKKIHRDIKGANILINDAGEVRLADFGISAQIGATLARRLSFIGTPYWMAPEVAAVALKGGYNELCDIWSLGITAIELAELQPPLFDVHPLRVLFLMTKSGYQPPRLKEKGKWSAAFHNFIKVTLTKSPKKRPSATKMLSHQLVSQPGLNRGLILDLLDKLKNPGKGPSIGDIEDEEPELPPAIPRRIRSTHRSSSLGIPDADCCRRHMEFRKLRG
Briefly: HPK1 human STE kinase enzymatic radiometric assay. It is filed as biochemical. The conditions noted are these: read-out: HPK1 IC50 nM Range. The method, then: (a) HPK1 Human STE Kinase Enzymatic Radiometric Assay
A stock solution of 10 mM of test compound is prepared in DMSO. The compound plate was prepared by 3-fold and 9-point serial dilutions. Recombinant (1-346) HPK1 (h) is incubated with 8 mM MOPS pH 7.0, 0.2 mM EDTA, 0.33 mg/mL myelin basic protein, 10 mM MgAcetate and [gamma-33P]-ATP (specific activity and concentration as required). The reaction is initiated by the addition of the Mg/ATP mix. After incubation for 40 minutes at RT, the reaction is stopped by the addition of phosphoric acid to a concentration of 0.5%, 10 μL of the reaction is then spotted onto a P30 filtermat and washed four times for 4 minutes in 0.425% phosphoric acid and once in methanol prior to drying and scintillation counting. For more details of kinase assay protocols, see: Gao, Y. et. al.; Biochem J.451 (2): 313-328, 2013.
Turning to `Nc1nc(F)c(-c2ccc(N3CCN(CCCC(F)F)CC3)cc2)nc1-c1ccc2c(c1)CCNC2=O` [Example I-68, 6-(3-amino-6-(4-(4-(4,4-difluorobutyl)piperazin-1-yl)phenyl)-5-fluoropyrazin-2-yl)-3,4-dihydroisoquinolin-1(2H)-one], the IC50 lay in the range of 0.1 to 10 nM. In the case of `Cc1cc(-c2nc(-c3ccc4c(=O)[nH]cc(C)c4c3)c(N)nc2F)cc2c1CCN(C)C2` [Example I-295, 6-(3-amino-6-(2,5-dimethyl-1,2,3,4-tetrahydroisoquinolin-7-yl)-5-fluoropyrazin-2-yl)-4-methylisoquinolin-1(2H)-one], the IC50 lay in the range of 11 to 100 nM. As for `CCN(C)Cc1cc(-c2nc(-c3ccc4c(c3)C(F)(F)CNC4=O)c(N)nc2F)ccc1C1CCOCC1` [Example I-224, 6-(3-amino-6-(3-((ethyl(methyl)amino)methyl)-4-(tetrahydro-2H-pyran-4-yl)phenyl)-5-fluoropyrazin-2-yl)-4,4-difluoro-3,4-dihydroisoquinolin-1(2H)-one], the IC50 lay in the range of 0.1 to 10 nM. To `CN(C)Cc1cccc(-c2nc(-c3ccc4c(c3)CCNC4=O)c(N)nc2F)c1` [Example I-277, 6-(3-amino-6-(3-((dimethylamino)methyl)phenyl)-5-fluoropyrazin-2-yl)-3,4-dihydroisoquinolin-1(2H)-one] belongs 11 to 100 nM; to `CC(C)N1CCN(c2ccc(-c3nc(-c4ccc5c(c4)C4(CC4)NCC5=O)c(N)nc3F)cc2)CC1` [Example I-260, 7′-(3-amino-5-fluoro-6-(4-(4-isopropylpiperazin-1-yl)phenyl)pyrazin-2-yl)-2′,3′-dihydro-4′H-spiro[cyclopropane-1,1′-isoquinolin]-4′-one], 101 to 1000 nM; to `Cc1nc2cc(-c3nc(-c4ccc([C@]56C[C@H]5CN(C)C6)cc4)c(F)nc3N)ccc2c(=O)[nH]1` [Example I-74, 7-(3-amino-5-fluoro-6-(4-((1S,5R)-3-methyl-3-azabicyclo[3.1.0]hexan-1-yl)phenyl)pyrazin-2-yl)-2-methylquinazolin-4(3H)-one], 11 to 100 nM. As for `C[C@@H]1CCCN1Cc1cc(-c2nc(-c3ccc4c(c3)C(F)(F)CNC4=O)c(N)nc2F)ccc1C1CCOCC1` [Example I-232, (R)-6-(3-amino-5-fluoro-6-(3-((2-methylpyrrolidin-1-yl)methyl)-4-(tetrahydro-2H-pyran-4-yl)phenyl)pyrazin-2-yl)-4,4-difluoro-3,4-dihydroisoquinolin-1(2H)-one], the figure is 0.1 to 10 nM.

Take `Cc1c[nH]c(=O)c2ccc(-c3nc(-c4ccc(N5CCOCC5)c(CN5CCC5)c4)c(F)nc3N)cc12` [Example I-202, 6-(3-amino-6-(3-(azetidin-1-ylmethyl)-4-morpholinophenyl)-5-fluoropyrazin-2-yl)-4-methylisoquinolin-1(2H)-one]: the IC50 lay in the range of 0.1 to 10 nM. Take `CN(C)Cc1cc(-c2nc(-c3cc(F)c4c(=O)[nH]cc(F)c4c3)c(N)nc2F)ccc1N1CCOCC1` [Example I-120, 6-(3-amino-6-(3-((dimethylamino)methyl)-4-morpholinophenyl)-5-fluoropyrazin-2-yl)-4,8-difluoroisoquinolin-1(2H)-one]: the IC50 fell in the range of 0.1 to 10 nM.

`CCN1CCN(c2ccc(-c3nc(-c4ccc5c(c4)CCNC5=O)c(N)nc3F)cc2)CC1` [Example I-55, 6-(3-amino-6-(4-(4-ethylpiperazin-1-yl)phenyl)-5-fluoropyrazin-2-yl)-3,4-dihydroisoquinolin-1(2H)-one]: the IC50 lay in the range of 0.1 to 10 nM. As for `CC(c1cc(-c2nc(-c3ccc4c(=O)[nH]cc(F)c4c3)c(N)nc2F)ccc1O)N(C)C` (stereo not shown) [Example I-302, 6-(3-amino-6-(3-(1-(dimethylamino)ethyl)-4-hydroxyphenyl)-5-fluoropyrazin-2-yl)-4-fluoroisoquinolin-1(2H)-one], the figure is 0.1 to 10 nM.

Turning to `CCN(C)Cc1cc(-c2nc(-c3ccc4c(=O)[nH]cc(F)c4c3)c(N)nc2F)ccc1OC` [Example I-300, 6-(3-amino-6-(3-((ethyl(methyl)amino)methyl)-4-methoxyphenyl)-5-fluoropyrazin-2-yl)-4-fluoroisoquinolin-1(2H)-one], the IC50 lay in the range of 11 to 100 nM. On to `COC1CCN(Cc2cc(-c3nc(-c4cc5c(cc4F)C(=O)NCC5)c(N)nc3F)ccc2N2CCSCC2)CC1` [Example I-127, 6-(3-amino-5-fluoro-6-(3-((4-methoxypiperidin-1-yl)methyl)-4-thiomorpholinophenyl)pyrazin-2-yl)-7-fluoro-3,4-dihydroisoquinolin-1(2H)-one], for which the IC50 is 11 to 100 nM. To `COc1ccc(-c2nc(-c3ccc4c(c3)CCNC4=O)c(N)nc2F)cc1C(C)N(C)C` (stereo not shown) [Example I-290, 6-(3-amino-6-(3-(1-(dimethylamino)ethyl)-4-methoxyphenyl)-5-fluoropyrazin-2-yl)-3,4-dihydroisoquinolin-1(2H)-one] belongs 0.1 to 10 nM. To `CN(C)Cc1cc(-c2nc(-c3ccc4c(=O)[nH]cc(F)c4c3)c(N)nc2F)ccc1OC(F)F` [Example I-270, 6-(3-amino-6-(4-(difluoromethoxy)-3-((dimethylamino)methyl)phenyl)-5-fluoropyrazin-2-yl)-4-fluoroisoquinolin-1(2H)-one] belongs 0.1 to 10 nM; to `Nc1nc(F)c(-c2ccc(C3CCOCC3)c(CN3CCCC3)c2)nc1-c1cc(F)c2c(c1)CCNC2=O` [Example I-149, 6-(3-amino-5-fluoro-6-(3-(pyrrolidin-1-ylmethyl)-4-(tetrahydro-2H-pyran-4-yl)phenyl)pyrazin-2-yl)-8-fluoro-3,4-dihydroisoquinolin-1(2H)-one], 0.1 to 10 nM. As for `Nc1nc(F)c(-c2ccc(N3CCOCC3)c(CN3CCCC3)c2)nc1-c1ccc2c(=O)[nH]ccc2c1` [Example I-114, 6-(3-amino-5-fluoro-6-(4-morpholino-3-(pyrrolidin-1-ylmethyl)phenyl)pyrazin-2-yl)isoquinolin-1(2H)-one], the figure is 0.1 to 10 nM; as for `CN(C)Cc1cc(-c2nc(-c3ccc4c(=O)[nH]cc(F)c4c3)c(N)nc2F)ccc1N1CCOCC1` [Example I-89, 6-(3-amino-6-(3-((dimethylamino)methyl)-4-morpholinophenyl)-5-fluoropyrazin-2-yl)-4-fluoroisoquinolin-1(2H)-one], 0.1 to 10 nM. Consider `COc1c[nH]c(=O)c2ccc(-c3nc(-c4ccc(N5CCN(C(C)C)CC5)cc4)c(F)nc3N)cc12` [Example I-119, 6-(3-amino-5-fluoro-6-(4-(4-isopropylpiperazin-1-yl)phenyl)pyrazin-2-yl)-4-methoxyisoquinolin-1(2H)-one], for which the IC50 was 11 to 100 nM. As for `C[C@@H]1CN(c2ccc(-c3nc(-c4ccc5c(c4)CCNC5=O)c(N)nc3F)cc2)C[C@H](C)N1C` [Example I-57, 6-(3-amino-5-fluoro-6-(4-((3R,5S)-3,4,5-trimethylpiperazin-1-yl)phenyl)pyrazin-2-yl)-3,4-dihydroisoquinolin-1(2H)-one], the figure is 0.1 to 10 nM; as for `CN(C)Cc1cc(-c2nc(-c3cc(F)c4c(c3)CCNC4=O)c(N)nc2F)ccc1F` [Example I-274, 6-(3-amino-6-(3-((dimethylamino)methyl)-4-fluorophenyl)-5-fluoropyrazin-2-yl)-8-fluoro-3,4-dihydroisoquinolin-1(2H)-one], 101 to 1000 nM. Regarding `Cc1c[nH]c(=O)c2cc(F)c(-c3nc(-c4ccc(N5CCN(C(C)C)CC5)cc4)c(F)nc3N)cc12` [Example I-234, 6-(3-amino-5-fluoro-6-(4-(4-isopropylpiperazin-1-yl)phenyl)pyrazin-2-yl)-7-fluoro-4-methylisoquinolin-1(2H)-one], the IC50 fell in the range of 0.1 to 10 nM.
